SMILES strings stand for the structures.

This assay relates to MV4-11 cells. Description: MV4-11 Cytotoxicity Assay. Format: cell-based, human. To be noted: Homo sapiens, MV4-11; 72 hr, CCK-8; read-out: MV4-11 cytotoxicity.
Turning to `Cc1sc2c(c1C)C(c1ccc(Cl)cc1)=N[C@@H](CC(=O)N1CCC(CN3CCC(Cc4ccc(-n5c(C(=O)NCC(F)(F)F)nnc5-c5cc(C(C)C)c(O)cc5O)cc4)CC3)CC1)c1nnc(C)n1-2` [Compound 85, (S)-4-(4-((1-((1-(2-(4-(4-chlorophenyl)-2,3,9-trimethyl-6H-thieno[3,2-f][1,2,4]triazolo[4,3-a][1,4]diazepin-6-yl)acetyl)piperidin-4-yl)methyl)piperidin-4-yl)methyl)phenyl)-5-(2,4-dihydroxy-5-isopropylphenyl)-N-(2,2,2-trifluoroethyl)-4H-1,2,4-triazole-3-carboxamide, formic acid], the IC50 is less than 100 nM.

As for `CCc1cc(-c2nnc(C(=O)NCC(F)(F)F)n2-c2ccc(CC3CCN(CC4CCN(C(=O)C[C@@H]5N=C(c6ccc(Cl)cc6)c6c(sc(C)c6C)-n6c(C)nnc65)CC4)CC3)cc2)c(O)cc1O` [Compound 86, (S)-4-(4-((1-((1-(2-(4-(4-chlorophenyl)-2,3,9-trimethyl-6H-thieno[3,2-f][1,2,4]triazolo[4,3-a][1,4]diazepin-6-yl)acetyl)piperidin-4-yl)methyl)piperidin-4-yl)methyl)phenyl)-5-(5-ethyl-2,4-dihydroxyphenyl)-N-(2,2,2-trifluoroethyl)-4H-1,2,4-triazole-3-carboxamide, trifluoroacetic acid], the IC50 was less than 100 nM.

With `CCNC(=O)c1nnc(-c2cc(CC)c(O)cc2O)n1-c1ccc(CC2CCN(CC3CCN(C(=O)C[C@@H]4N=C(c5ccc(Cl)cc5)c5c(sc(C)c5C)-n5c(C)nnc54)CC3)CC2)cc1` [Compound 87, (S)-4-(4-((1-((1-(2-(4-(4-chlorophenyl)-2,3,9-trimethyl-6H-thieno[3,2-f][1,2,4]triazolo[4,3-a][1,4]diazepin-6-yl)acetyl)piperidin-4-yl)methyl)piperidin-4-yl)methyl)phenyl)-N-ethyl-5-(5-ethyl-2,4-dihydroxyphenyl)-1H-1,2,414-triazole-3-carboxamide, trifluoroacetic acid], the IC50 is less than 100 nM.

As to `CCc1cc(-c2nnc(O)n2-c2ccc(CC3CCN(CC4CCN(C(=O)C[C@@H]5N=C(c6ccc(Cl)cc6)c6c(sc(C)c6C)-n6c(C)nnc65)CC4)CC3)cc2)c(O)cc1O` [Compound 88, (S)-2-(4-(4-chlorophenyl)-2,3,9-trimethyl-6H-thieno[3,2-f][1,2,4]triazolo[4,3-a][1,4]diazepin-6-yl)-1-(4-((4-(4-(3-(5-ethyl-2,4-dihydroxyphenyl)-5-hydroxy-4H-1,2,4-triazol-4-yl)benzyl)piperidin-1-yl)methyl)piperidin-1-yl)ethan-1-one, formic acid], the IC50 is less than 100 nM.

With `Cc1sc2c(c1C)C(c1ccc(Cl)cc1)=N[C@@H](CC(=O)NCc1ccc(CN3CCC(Cc4ccc(-n5c(O)nnc5-c5cc(C(C)C)c(O)cc5O)cc4)CC3)cc1)c1nnc(C)n1-2` [Compound 89, (S)-2-(4-(4-chlorophenyl)-2,3,9-trimethyl-6H-thieno[3,2-f][1,2,4]triazolo[4,3-a][1,4]diazepin-6-yl)-N-(4-((4-(4-(3-(2,4-dihydroxy-5-isopropylphenyl)-5-hydroxy-4H-1,2,4-triazol-4-yl)benzyl)piperidin-1-yl)methyl)benzyl)acetamide, trifluoroacetic acid], the IC50 was less than 100 nM.

`CCNC(=O)c1nnc(-c2cc(C(C)C)c(O)cc2O)n1-c1ccc(CC2CCN(CC3CCN(C(=O)C[C@@H]4N=C(c5ccc(Cl)cc5)c5c(sc(C)c5C)-n5c(C)nnc54)CC3)CC2)cc1` [Compound 90, (S)-4-(4-((1-((1-(2-(4-(4-chlorophenyl)-2,3,9-trimethyl-6H-thieno[3,2-f][1,2,4]triazolo[4,3-a][1,4]diazepin-6-yl)acetyl)piperidin-4-yl)methyl)piperidin-4-yl)methyl)phenyl)-5-(2,4-dihydroxy-5-isopropylphenyl)-N-ethyl-4H-1,2,4-triazole-3-carboxamide]: the IC50 was less than 100 nM.

Regarding `CCc1cc(-c2nnc(C(=O)NCC(F)(F)F)n2-c2ccc(CC3CCN(Cc4ccc(CNC(=O)C[C@@H]5N=C(c6ccc(Cl)cc6)c6c(sc(C)c6C)-n6c(C)nnc65)cc4)CC3)cc2)c(O)cc1O` [Compound 91, (S)-4-(4-((1-(4-((2-(4-(4-chlorophenyl)-2,3,9-trimethyl-6H-thieno[3,2-f][1,2,4]triazolo[4,3-a][1,4]diazepin-6-yl)acetamido)methyl)benzyl)piperidin-4-yl)methyl)phenyl)-5-(5-ethyl-2,4-dihydroxyphenyl)-N-(2,2,2-trifluoroethyl)-4H-1,2,4-triazole-3-carboxamide, trifluoroacetic acid], the IC50 is less than 100 nM.

Take `Cc1sc2c(c1C)C(c1ccc(Cl)cc1)=N[C@@H](CC(=O)N(C)[C@H](C)c1ccc(CN3CCN(Cc4ccc(-n5c(O)nnc5-c5cc(C(C)C)c(O)cc5O)cc4)CC3)cc1)c1nnc(C)n1-2` [Compound 92, 2-((S)-4-(4-chlorophenyl)-2,3,9-trimethyl-6H-thieno[3,2-f][1,2,4]triazolo[4,3-a][1,4]diazepin-6-yl)-N—((R)-1-(4-((4-(4-(3-(2,4-dihydroxy-5-isopropylphenyl)-5-hydroxy-4H-1,2,4-triazol-4-yl)benzyl)piperazin-1-yl)methyl)phenyl)ethyl)-N-methylacetamide, trifluoroacetic acid]: the IC50 is 100 to 1000 nM.

Consider `Cc1sc2c(c1C)C(c1ccc(Cl)cc1)=N[C@@H](CC(=O)N(C)[C@H](C)c1ccc(CN3CCC(Cc4ccc(-n5c(O)nnc5-c5cc(C(C)C)c(O)cc5O)cc4)CC3)cc1)c1nnc(C)n1-2` [Compound 93, 2-((S)-4-(4-chlorophenyl)-2,3,9-trimethyl-6H-thieno[3,2-f][1,2,4]triazolo[4,3-a][1,4]diazepin-6-yl)-N—((R)-1-(4-((4-(4-(3-(2,4-dihydroxy-5-isopropylphenyl)-5-hydroxy-4H-1,2,4-triazol-4-yl)benzyl)piperidin-1-yl)methyl)phenyl)ethyl)-N-methylacetamide, trifluoroacetic acid], for which the IC50 is less than 100 nM.

With `Cc1sc2c(c1C)C(c1ccc(Cl)cc1)=N[C@@H](CC(=O)N1CCC(CN3CCC(Cc4ccc(-n5c(O)nnc5-c5cc(C(C)C)c(O)cc5O)cc4)CC3)CC1)c1nnc(C)n1-2` [Compound 94, (S)-2-(4-(4-chlorophenyl)-2,3,9-trimethyl-6H-thieno[3,2-f][1,2,4]triazolo[4,3-a][1,4]diazepin-6-yl)-1-(4-((4-(4-(3-(2,4-dihydroxy-5-isopropylphenyl)-5-hydroxy-4H-1,2,4-triazol-4-yl)benzyl)piperidin-1-yl)methyl)piperidin-1-yl)ethan-1-one, trifluoroacetic acid], the IC50 was less than 100 nM.

For the compound `Cc1sc2c(c1C)C(c1ccc(Cl)cc1)=N[C@@H](CC(=O)NCCc1ccc(CN3CCC(Cc4ccc(-n5c(C(=O)NCC(F)(F)F)nnc5-c5cc(C(C)C)c(O)cc5O)cc4)CC3)cc1)c1nnc(C)n1-2` [Compound 95, (S)-4-(4-((1-(4-(2-(2-(4-(4-chlorophenyl)-2,3,9-trimethyl-6H-thieno[3,2-f][1,2,4]triazolo[4,3-a][1,4]diazepin-6-yl)acetamido)ethyl)benzyl)piperidin-4-yl)methyl)phenyl)-5-(2,4-dihydroxy-5-isopropylphenyl)-N-(2,2,2-trifluoroethyl)-4H-1,2,4-triazole-3-carboxamide, trifluoroacetic acid], the IC50 was less than 100 nM.

Take `Cc1sc2c(c1C)C(c1ccc(Cl)cc1)=N[C@@H](CC(=O)NCc1ccc(CN3CCC(Cc4ccc(-n5c(C(=O)NCC(F)(F)F)nnc5-c5cc(C(C)C)c(O)cc5O)cc4)CC3)cc1)c1nnc(C)n1-2` [Compound 96, (S)-4-(4-((1-(4-((2-(4-(4-chlorophenyl)-2,3,9-trimethyl-6H-thieno[3,2-f][1,2,4]triazolo[4,3-a][1,4]diazepin-6-yl)acetamido)methyl)benzyl)piperidin-4-yl)methyl)phenyl)-5-(2,4-dihydroxy-5-isopropylphenyl)-N-(2,2,2-trifluoroethyl)-4H-1,2,4-triazole-3-carboxamide, trifluoroacetic acid]: the IC50 was less than 100 nM.

As for `Cc1sc2c(c1C)C(c1ccc(Cl)cc1)=N[C@@H](CC(=O)N[C@H](C)c1cccc(CN3CCC(Cc4ccc(-n5c(C(=O)NCC(F)(F)F)nnc5-c5cc(C(C)C)c(O)cc5O)cc4)CC3)c1)c1nnc(C)n1-2` [Compound 97, 4-(4-((1-(3-((R)-1-(2-((S)-4-(4-chlorophenyl)-2,3,9-trimethyl-6H-thieno[3,2-f][1,2,4]triazolo[4,3-a][1,4]diazepin-6-yl)acetamido)ethyl)benzyl)piperidin-4-yl)methyl)phenyl)-5-(2,4-dihydroxy-5-isopropylphenyl)-N-(2,2,2-trifluoroethyl)-4H-1,2,4-triazole-3-carboxamide, trifluoroacetic acid], the IC50 was less than 100 nM.

As to `Cc1sc2c(c1C)C(c1ccc(Cl)cc1)=N[C@@H](CC(=O)NCCc1ccc(CN3CCC(Cc4ccc(-n5c(O)nnc5-c5cc(C(C)C)c(O)cc5O)cc4)CC3)cc1)c1nnc(C)n1-2` [Compound 98, (S)-2-(4-(4-chlorophenyl)-2,3,9-trimethyl-6H-thieno[3,2-f][1,2,4]triazolo[4,3-a][1,4]diazepin-6-yl)-N-(4-((4-(4-(3-(2,4-dihydroxy-5-isopropylphenyl)-5-hydroxy-4H-1,2,4-triazol-4-yl)benzyl)piperidin-1-yl)methyl)phenethyl)acetamide, trifluoroacetic acid], the IC50 was less than 100 nM.

As for `Cc1sc2c(c1C)C(c1ccc(Cl)cc1)=N[C@@H](CC(=O)N(C)CCOc1ccc(CN(C)Cc3ccc(-n4c(O)nnc4-c4cc(C(C)C)c(O)cc4O)cc3)cc1)c1nnc(C)n1-2` [Compound 99, (S)-2-(4-(4-chlorophenyl)-2,3,9-trimethyl-6H-thieno[3,2-f][1,2,4]triazolo[4,3-a][1,4]diazepin-6-yl)-N-(2-(4-(((4-(3-(2,4-dihydroxy-5-isopropylphenyl)-5-hydroxy-4H-1,2,4-triazol-4-yl)benzyl)(methyl)amino)methyl)phenoxy)ethyl)-N-methylacetamide, formic acid], the IC50 is less than 100 nM.

For the origin of these results see patent publication US12540143B2, “Methods and compositions for targeted protein degradation” (Ranok Therapeutics (Hangzhou) Co. Ltd., priority 2019, dated 2026).
